Results published in patent US10792289B2 (Horizon Orphan LLC, priority 2009, dated 2020).

Tested on: non-fermenting gram negative bacilli (NFGNB), excluding P. aeruginosa
Experiment: Phase 2 study: non-fermenting gram negative bacilli density in sputum
Format: in vivo
Experimental: The following dosage regimens (as nebulizer loaded doses) were evaluated: 120 mg QD (daily); 240 mg QD (daily); and 240 mg BID (twice daily). Based on aerosol characterization studies of the 100 mg/ml formulation, these loaded doses of 120 and 240 mg correspond estimated respirable delivered doses (RDDs) using a PART eFlow nebulizer of about 65 and 130 mg, respectively.
Patients were assessed on Day 1, 7, 14, and 28, and then up to 28 days after completion of study drug, namely, Days 42 and 56. The end of the study was defined as the last visit of the last patient. Study populations included: (1) safety/modified intent to treat (MITT) population which included all patients enrolled in the study that receive at least one dose of study drug; (2) efficacy evaluable (EE) population which included all patients enrolled in the study without major protocol violations that receive at least 80% of study drug doses during the 28 days of study drug therapy; and (3) pharmacokinetic (PK) population which included all patients that receive at least one dose of study drug and have at least one PK blood sample collected.
Changes in P. aeruginosa density (log lo CFU/g sputum) for sputum samples taken from the EE and MITT populations are summarized in Tables 10 and 11, respectively (SD=standard deviation). […] Tables 18 and 19 summarize changes in non-fermenting gram negative bacilli density (NFGNB), excluding P. aeruginosa, with only patients with positive NFGNB counts at baseline, for EE and MITT populations, respectively. Tables 20 and 21 summarize changes for presumptive S. aureus density (log10 CFU/g sputum) for only patients with positive S. aureus counts at baseline, for EE and MITT populations, respectively.

[1] = EE population, Combined 240 mg QD and BID
[2] = EE population, Combined Levofloxacin
[3] = MITT population, Combined 240 mg QD and BID
[4] = MITT population, Combined Levofloxacin

SMILES: C[C@H]1COc2c(N3CCN(C)CC3)c(F)cc3c(=O)c(C(=O)O)cn1c23 [Levofloxacin, levofloxacin]
- NFGNB density, Change from Baseline to Day 7, Mean (EE population, 120 mg QD): −1.15 log10 CFU/g sputum
- NFGNB density, Day 1, Mean (EE population, 120 mg QD): 5.69 log10 CFU/g sputum
- NFGNB density, Day 7, Mean (EE population, 120 mg QD): 4.54 log10 CFU/g sputum
- NFGNB density, Day 14, Mean (EE population, 120 mg QD): 3.15 log10 CFU/g sputum
- NFGNB density, Day 28, Mean (EE population, 120 mg QD): 5.10 log10 CFU/g sputum
- NFGNB density, Change from Baseline to Day 28, Mean (EE population, 120 mg QD, Day 14): −2.54 log10 CFU/g sputum
- NFGNB density, Change from Baseline to Day 28, Mean (EE population, 120 mg QD, Day 28): −1.44 log10 CFU/g sputum
- NFGNB density, Change from Baseline to Day 7, Mean (EE population, 240 mg BID): −0.51 log10 CFU/g sputum
- NFGNB density, Day 1, Mean (EE population, 240 mg BID): 5.52 log10 CFU/g sputum
- NFGNB density, Day 7, Mean (EE population, 240 mg BID): 5.01 log10 CFU/g sputum
- NFGNB density, Day 14, Mean (EE population, 240 mg BID): 6.02 log10 CFU/g sputum
- NFGNB density, Day 28, Mean (EE population, 240 mg BID): 5.01 log10 CFU/g sputum
- NFGNB density, Change from Baseline to Day 28, Mean (EE population, 240 mg BID, Day 14): 0.50 log10 CFU/g sputum
- NFGNB density, Change from Baseline to Day 28, Mean (EE population, 240 mg BID, Day 28): −0.51 log10 CFU/g sputum
- NFGNB density, Change from Baseline to Day 7, Mean (EE population, 240 mg QD): −2.47 log10 CFU/g sputum
- NFGNB density, Day 1, Mean (EE population, 240 mg QD): 4.65 log10 CFU/g sputum
- NFGNB density, Day 7, Mean (EE population, 240 mg QD): 2.18 log10 CFU/g sputum
- NFGNB density, Day 14, Mean (EE population, 240 mg QD): 2.04 log10 CFU/g sputum
- NFGNB density, Day 28, Mean (EE population, 240 mg QD): 1.36 log10 CFU/g sputum
- NFGNB density, Change from Baseline to Day 28, Mean (EE population, 240 mg QD, Day 14): −2.61 log10 CFU/g sputum
- NFGNB density, Change from Baseline to Day 28, Mean (EE population, 240 mg QD, Day 28): −3.29 log10 CFU/g sputum
- NFGNB density, Change from Baseline to Day 7, Mean [1]: −1.60 log10 CFU/g sputum
- NFGNB density, Day 1, Mean [1]: 5.03 log10 CFU/g sputum
- NFGNB density, Day 7, Mean [1]: 3.44 log10 CFU/g sputum
- NFGNB density, Day 14, Mean [1]: 3.80 log10 CFU/g sputum
- NFGNB density, Day 28, Mean [1]: 2.98 log10 CFU/g sputum
- NFGNB density, Change from Baseline to Day 28, Mean (EE population, Combined 240 mg QD and BID, Day 14): −1.23 log10 CFU/g sputum
- NFGNB density, Change from Baseline to Day 28, Mean (EE population, Combined 240 mg QD and BID, Day 28): −2.05 log10 CFU/g sputum
- NFGNB density, Change from Baseline to Day 7, Mean [2]: −1.44 log10 CFU/g sputum
- NFGNB density, Day 1, Mean [2]: 5.27 log10 CFU/g sputum
- NFGNB density, Day 7, Mean [2]: 3.83 log10 CFU/g sputum
- NFGNB density, Day 14, Mean [2]: 3.57 log10 CFU/g sputum
- NFGNB density, Day 28, Mean [2]: 3.63 log10 CFU/g sputum
- NFGNB density, Change from Baseline to Day 28, Mean (EE population, Combined Levofloxacin, Day 14): −1.70 log10 CFU/g sputum
- NFGNB density, Change from Baseline to Day 28, Mean (EE population, Combined Levofloxacin, Day 28): −1.87 log10 CFU/g sputum
- NFGNB density, Change from Baseline to Day 7, Mean (MITT population, 120 mg QD): −1.15 log10 CFU/g sputum
- NFGNB density, Day 1, Mean (MITT population, 120 mg QD): 5.69 log10 CFU/g sputum
- NFGNB density, Day 7, Mean (MITT population, 120 mg QD): 4.54 log10 CFU/g sputum
- NFGNB density, Day 14, Mean (MITT population, 120 mg QD): 3.25 log10 CFU/g sputum
- NFGNB density, Day 28, Mean (MITT population, 120 mg QD): 5.10 log10 CFU/g sputum
- NFGNB density, Change from Baseline to Day 28, Mean (MITT population, 120 mg QD, Day 14): −2.54 log10 CFU/g sputum
- NFGNB density, Change from Baseline to Day 28, Mean (MITT population, 120 mg QD, Day 28): −1.44 log10 CFU/g sputum
- NFGNB density, Change from Baseline to Day 7, Mean (MITT population, 240 mg BID): −0.42 log10 CFU/g sputum
- NFGNB density, Day 1, Mean (MITT population, 240 mg BID): 6.05 log10 CFU/g sputum
- NFGNB density, Day 7, Mean (MITT population, 240 mg BID): 5.63 log10 CFU/g sputum
- NFGNB density, Day 14, Mean (MITT population, 240 mg BID): 6.50 log10 CFU/g sputum
- NFGNB density, Day 28, Mean (MITT population, 240 mg BID): 5.63 log10 CFU/g sputum
- NFGNB density, Change from Baseline to Day 28, Mean (MITT population, 240 mg BID, Day 14): 0.45 log10 CFU/g sputum
- NFGNB density, Change from Baseline to Day 28, Mean (MITT population, 240 mg BID, Day 28): −0.43 log10 CFU/g sputum
- NFGNB density, Change from Baseline to Day 7, Mean (MITT population, 240 mg QD): −2.73 log10 CFU/g sputum
- NFGNB density, Day 1, Mean (MITT population, 240 mg QD): 5.26 log10 CFU/g sputum
- NFGNB density, Day 7, Mean (MITT population, 240 mg QD): 2.52 log10 CFU/g sputum
- NFGNB density, Day 14, Mean (MITT population, 240 mg QD): 3.08 log10 CFU/g sputum
- NFGNB density, Day 28, Mean (MITT population, 240 mg QD): 2.77 log10 CFU/g sputum
- NFGNB density, Change from Baseline to Day 28, Mean (MITT population, 240 mg QD, Day 14): −2.18 log10 CFU/g sputum
- NFGNB density, Change from Baseline to Day 28, Mean (MITT population, 240 mg QD, Day 28): −2.49 log10 CFU/g sputum
- NFGNB density, Change from Baseline to Day 7, Mean [3]: −1.77 log10 CFU/g sputum
- NFGNB density, Day 1, Mean [3]: 5.59 log10 CFU/g sputum
- NFGNB density, Day 7, Mean [3]: 3.82 log10 CFU/g sputum
- NFGNB density, Day 14, Mean [3]: 4.50 log10 CFU/g sputum
- NFGNB density, Day 28, Mean [3]: 3.96 log10 CFU/g sputum
- NFGNB density, Change from Baseline to Day 28, Mean (MITT population, Combined 240 mg QD and BID, Day 14): −1.08 log10 CFU/g sputum
- NFGNB density, Change from Baseline to Day 28, Mean (MITT population, Combined 240 mg QD and BID, Day 28): 1.63 log10 CFU/g sputum
- NFGNB density, Change from Baseline to Day 7, Mean [4]: −1.59 log10 CFU/g sputum
- NFGNB density, Day 1, Mean [4]: 5.62 log10 CFU/g sputum
- NFGNB density, Day 7, Mean [4]: 4.03 log10 CFU/g sputum
- NFGNB density, Day 14, Mean [4]: 4.11 log10 CFU/g sputum
- NFGNB density, Day 28, Mean [4]: 4.24 log10 CFU/g sputum
- NFGNB density, Change from Baseline to Day 28, Mean (MITT population, Combined Levofloxacin, Day 14): −1.51 log10 CFU/g sputum
- NFGNB density, Change from Baseline to Day 28, Mean (MITT population, Combined Levofloxacin, Day 28): −1.58 log10 CFU/g sputum
